Read-outs that look alike come from different tables or passages of the source.
Assays:
mouse adult α1β1εδ nAChR [1] = molecular target: T1, mouse adult α1β1εδ nAChR (Mus musculus, UniProt P02716+P04756+P09690+P20782); assay type: cell-based
mouse 5-HT3AR [2] = molecular target: T2, mouse 5-HT3AR (Mus musculus, UniProt P23979); experiment: cell-based; assay type: cell-based
mouse α3β2γ2 GABAAR = mouse α3β2γ2 GABAAR (Mus musculus, UniProt P22723+P26049+P63137); experiment: cell-based; conditions: for inhibition at 100 µM: read-out: inhibition of GABA-evoked currents
mouse adult α1β1εδ nAChR [3] = molecular target: T1, mouse adult α1β1εδ nAChR; experiment: cell-based; assay type: cell-based
human α7 nAChR = human α7 nAChR (Homo sapiens, UniProt P36544); experiment: cell-based
α1β3γ2 GABAAR = α1β3γ2 GABAAR (Mus musculus, UniProt P62812+P63080); assay type: binding
GABAAR = conditions: cited from earlier work
[4] = test system: end-plate muscle type nAChRs; conditions: cited from earlier work
mouse 5-HT3AR [5] = molecular target: T2, mouse 5-HT3AR; conditions: cited from earlier work
human 5-HT3AR = conditions: cited from earlier work

| Compound | effect on maximal acetylcholine response (in words) (mouse adult α1β1εδ nAChR [1]) | IC50 (mouse 5-HT3AR [2]) [nM] | fold less active than d-TC (mouse 5-HT3AR [2]) [fold] | nH (Hill slope) (mouse 5-HT3AR [2]) | inhibition at 100 µM (mouse α3β2γ2 GABAAR) [%] | IC50 (mouse adult α1β1εδ nAChR [3]) [nM] | fold less potent than BBIQA1 and d-TC (mouse adult α1β1εδ nAChR [3]) | nH (Hill slope) (mouse adult α1β1εδ nAChR [3]) | IC50 (human α7 nAChR) [nM] | nH (Hill slope) (human α7 nAChR) | competition with Alexa Fluor 546 αCtx binding (in words) (α1β3γ2 GABAAR) | inhibition of GABA-evoked currents (mouse α3β2γ2 GABAAR) | inhibition of GABAAR (in words) (GABAAR) | fold higher affinity of orthosteric α/ε (or α/γ) site than orthosteric α/δ site [4] [fold] | IC50 (mouse 5-HT3AR [5]) [nM] | IC50 (human 5-HT3AR) [nM] |
| --- | --- | --- | --- | --- | --- | --- | --- | --- | --- | --- | --- | --- | --- | --- | --- | --- |
| α-bungarotoxin [αBgt, reference compound] | did not observe any reduction in the maximal amplitude |  |  |  |  |  |  |  |  |  |  |  |  |  |  |  |
| COc1ccc2cc1Oc1cc3c(cc1O)CCN[C@H]3Cc1ccc(cc1)Oc1c(O)c(OC)cc3c1[C@@H](C2)[N+](C)(C)CC3 [BBIQA2] | reduces the maximal acetylcholine response | 1970 | 87 | -1.83 ± 0.01 | 40 to 50 | 1750 | ~ 2 fold | -1.04 ± 0.21 | 3080 | -0.94 ± 0.29 | comparable affinities |  |  |  |  |  |
| COc1cc2c3cc1Oc1cc(ccc1O)C[C@@H]1c4c(cc(OC)c(O)c4Oc4ccc(cc4)C[C@@H]3N(C)CC2)CC[N+]1(C)C [d-TC, d-tubocurarine, reference compound] | reduces the maximal acetylcholine response | 22.6 |  | -1.19 ± 0.21 | 90 | 810 |  | -1.87 ± 0.41 | 2030 | -1.39 ± 0.21 | comparable affinities | almost completely inhibited | inhibits GABAAR | 100 | 11.4 to 13 | 1800 |
| COc1cc2c(cc1O)[C@@H](Cc1ccc(O)c(Oc3cc4c(cc3OC)CCN[C@H]4Cc3ccc(O)cc3)c1)NCC2 [BBIQA1] | reduces the maximal acetylcholine response | 119 | 5 | -1.06 ± 0.09 | 40 to 50 | 750 |  | -0.96 ± 0.16 | 1700 | -0.83 ± 0.17 | comparable affinities |  |  |  |  |  |

From PMC6319706 (PLoS ONE, 2019)
